Experimental data as given in US20260325533A1, “CDK INHIBITOR COMPOUNDS” (ALEKSIA THERAPEUTICS, INC., priority 2023, published 2026).
Like-named read-outs stand apart in the source and are kept apart here.

Experiments:
Type in all cases: biochemical
CDK4/CCND3 = CDK4/CCND3 (Homo sapiens, UniProt P11802); assay: CDK4 homogeneous time-resolved fluorescence (HTRF) kinase assay; details: CDK4/CCND
In short: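 Inhibition of CDK4/CCND3 (1.5 nM) was measured at high ATP (1 mM) using 50 nM ULight-labelled 4E-BP1 Thr37/46 peptide; detection used 2 nM europium anti-phospho antibody after EDTA quench. IC50 values came from 11-point half-log titrations typically starting at 10 μM.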

CDK2/CCNE1 = CDK2/CCNE1 (Homo sapiens, UniProt P24941); assay: CDK2 homogeneous time-resolved fluorescence (HTRF) kinase assay; details: CDK2/CCNE
In short: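 3 nM CDK2/CCNE1 was preincubated with compound for 20 min at 23 °C in HEPES buffer (pH not stated), then reacted 60 min with 1 mM ATP and 50 nM ULight-4E-BP1 (Thr37/46) peptide. After EDTA stop, Eu-anti-phospho-4E-BP1 antibody (2 nM) was added for 60 min and TR-FRET read at 665 nm.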

CDK1/CCNB1 = CDK1/CCNB1 (Homo sapiens, UniProt P06493); assay: CDK1 homogeneous time-resolved fluorescence (HTRF) kinase assay; details: CDK1/CCNB
Sequence of CDK1/CCNB1 (P06493 whole entry): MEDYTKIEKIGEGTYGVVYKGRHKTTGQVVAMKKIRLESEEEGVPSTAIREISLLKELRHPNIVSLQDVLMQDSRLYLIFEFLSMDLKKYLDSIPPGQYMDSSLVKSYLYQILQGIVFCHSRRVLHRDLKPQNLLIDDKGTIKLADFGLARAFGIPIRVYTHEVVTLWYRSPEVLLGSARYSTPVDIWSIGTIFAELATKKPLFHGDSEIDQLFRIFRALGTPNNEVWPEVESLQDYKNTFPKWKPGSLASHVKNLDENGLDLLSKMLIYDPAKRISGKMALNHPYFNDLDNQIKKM
Sequence of CDK1/CCNB1 (P14635 whole entry partner): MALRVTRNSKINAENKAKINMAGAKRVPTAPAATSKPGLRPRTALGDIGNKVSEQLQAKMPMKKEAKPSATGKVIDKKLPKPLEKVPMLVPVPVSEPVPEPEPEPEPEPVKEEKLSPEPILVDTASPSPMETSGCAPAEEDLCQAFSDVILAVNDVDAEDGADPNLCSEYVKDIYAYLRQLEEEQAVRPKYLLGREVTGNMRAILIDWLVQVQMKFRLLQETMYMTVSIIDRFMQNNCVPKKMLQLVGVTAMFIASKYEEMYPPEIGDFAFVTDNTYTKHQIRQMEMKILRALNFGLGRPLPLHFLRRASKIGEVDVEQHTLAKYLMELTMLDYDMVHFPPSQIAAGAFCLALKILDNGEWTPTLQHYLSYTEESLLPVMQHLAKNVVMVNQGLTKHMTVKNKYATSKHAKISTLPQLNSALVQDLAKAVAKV
In short: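 HTRF assay with 0.5 nM CDK1/CCNB1, 1 mM ATP, 50 nM ULight-eIF4E-BP1 (Thr37/46) peptide; compound preincubated 20 min, reaction 60 min at 23 °C, EDTA stop, Eu-anti-phospho antibody detection. 11-point half-log titration from 10 μM, 1% DMSO; IC50 from 665 nm or 665/615 signal.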

CDK6/CCND1 = CDK6/CCND1 (Homo sapiens, UniProt Q00534); assay: CDK6 homogeneous time-resolved fluorescence (HTRF) kinase assay; details: CDK6/CCND
Sequence of CDK6/CCND1 (Q00534 whole entry): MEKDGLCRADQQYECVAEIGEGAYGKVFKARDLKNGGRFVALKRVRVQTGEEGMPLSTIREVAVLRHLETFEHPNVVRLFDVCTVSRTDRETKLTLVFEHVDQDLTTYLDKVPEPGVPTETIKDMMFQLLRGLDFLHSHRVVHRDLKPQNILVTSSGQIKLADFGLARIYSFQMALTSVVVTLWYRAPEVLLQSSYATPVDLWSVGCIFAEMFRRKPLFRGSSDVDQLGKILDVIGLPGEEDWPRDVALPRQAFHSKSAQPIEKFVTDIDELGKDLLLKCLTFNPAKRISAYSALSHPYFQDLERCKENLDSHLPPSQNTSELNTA
Sequence of CDK6/CCND1 (P24385 whole entry partner): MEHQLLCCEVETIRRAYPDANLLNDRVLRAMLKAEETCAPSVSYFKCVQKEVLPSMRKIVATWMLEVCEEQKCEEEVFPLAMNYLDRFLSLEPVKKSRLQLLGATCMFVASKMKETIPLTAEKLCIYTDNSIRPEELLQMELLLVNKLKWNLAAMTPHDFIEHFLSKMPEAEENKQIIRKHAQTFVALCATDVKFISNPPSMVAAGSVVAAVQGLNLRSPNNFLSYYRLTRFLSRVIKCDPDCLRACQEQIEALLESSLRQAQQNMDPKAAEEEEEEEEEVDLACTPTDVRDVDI
In short: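 1 nM enzyme, 1 mM ATP, 50 nM ULight-4E-BP1 (Thr37/46) peptide, 1% DMSO; 20 min compound preincubation, 60 min reaction, 23 °C. EDTA stop, 2 nM Eu-anti-phospho-4E-BP1 antibody 60 min. TR-FRET 665 nm (or 665/615 ratio); IC50 from 11-point half-log titration, top 10 μM.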

[1] = x = IC50 <25 nM, read-out: CDK2/CCNE IC50 (<25 nM)
[2] = x = IC50 25-250 nM, read-out: CDK1/CCNB IC50 (25-250 nM)
[3] = x = IC50 25-250 nM, read-out: CDK6/CCND IC50 (25-250 nM)
[4] = x = IC50 >250 nM, read-out: CDK4/CCND IC50 (>250 nM column)
[5] = x = IC50 25-250 nM, read-out: CDK2/CCNE IC50 (25-250 nM)
[6] = x = IC50 >250 nM, read-out: CDK1/CCNB IC50 (>250 nM column)
[7] = x = IC50 >250 nM, read-out: CDK6/CCND IC50 (>250 nM column)
[8] = 25-250 nM marked x, read-out: CDK4/CCND IC50 25-250 nM
[9] = >250 nM marked x, read-out: CDK1/CCNB IC50 >250 nM
[10] = >250 nM, read-out: CDK4/CCND IC50, >250 nM
[11] = <25 nM, read-out: CDK2/CCNE IC50, <25 nM
[12] = >250 nM, read-out: CDK1/CCNB IC50 >250 nM
[13] = >250 nM, 1 mM ATP, read-out: CDK6/CCND IC50, >250 nM
[14] = <25 nM, read-out: CDK2/CCNE IC50 <25 nM
[15] = 25-250 nM marked x, read-out: CDK1/CCNB IC50 25-250 nM
[16] = 25-250 nM marked x, read-out: CDK6/CCND IC50 25-250 nM
[17] = 25-250 nM, read-out: CDK4/CCND IC50, 25-250 nM
[18] = 25-250 nM, 1 mM ATP, read-out: CDK6/CCND IC50, 25-250 nM
[19] = 25-250 nM, read-out: CDK2/CCNE IC50, 25-250 nM
[20] = x = IC50 25-250 nM, read-out: CDK4/CCND IC50 (25-250 nM)

Sequence of CDK4/CCND3 (P11802 whole entry): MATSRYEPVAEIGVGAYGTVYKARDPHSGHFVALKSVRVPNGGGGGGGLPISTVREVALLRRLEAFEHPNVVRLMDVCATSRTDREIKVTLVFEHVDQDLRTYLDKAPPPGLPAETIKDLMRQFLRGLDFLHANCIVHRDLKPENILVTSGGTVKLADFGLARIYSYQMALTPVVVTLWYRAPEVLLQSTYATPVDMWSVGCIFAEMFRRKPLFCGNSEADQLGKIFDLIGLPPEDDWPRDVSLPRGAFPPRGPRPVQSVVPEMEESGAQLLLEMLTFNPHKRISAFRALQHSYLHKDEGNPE
Sequence of CDK4/CCND3 (P30281 whole entry partner): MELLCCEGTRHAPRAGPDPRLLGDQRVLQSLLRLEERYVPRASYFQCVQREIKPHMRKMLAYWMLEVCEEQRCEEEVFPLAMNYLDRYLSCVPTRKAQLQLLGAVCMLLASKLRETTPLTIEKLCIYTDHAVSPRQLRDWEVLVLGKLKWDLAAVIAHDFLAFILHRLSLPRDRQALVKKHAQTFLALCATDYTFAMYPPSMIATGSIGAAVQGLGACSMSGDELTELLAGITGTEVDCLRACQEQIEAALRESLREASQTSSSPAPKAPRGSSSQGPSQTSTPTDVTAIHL

N=S(=O)(c1ccc(Nc2cc3c(C#Cc4ccc5c(c4)NC(=O)C54CC4)nccc3cn2)cc1)C1CCC1 (single isomer, unassigned) [Ex 350, 6'-((7-((4-(cyclobutanesulfonimidoyl)phenyl)amino)-2,6-naphthyridin-1-yl)ethynyl)spiro[cyclopropane-1,3'-indolin]-2'-one]
IC50 (CDK4/CCND3; x = IC50 <25 nM, read-out: CDK4/CCND IC50 (<25 nM)): < 25 nM
IC50 (CDK2/CCNE1; [1]): < 25 nM
IC50 (CDK1/CCNB1; [2]): 25 to 250 nM
IC50 (CDK6/CCND1; [3]): 25 to 250 nM

CS(=O)(=O)c1ccc(Nc2cc3c(C#Cc4ccc(C#N)cc4F)nccc3cn2)cc1 [Ex 554, 3-fluoro-4-((7-((4-(methylsulfonyl)phenyl)amino)-2,6-naphthyridin-1-yl)ethynyl)benzonitrile]
IC50 (CDK4/CCND3; [4]): > 250 nM
IC50 (CDK2/CCNE1; [5]): 25 to 250 nM
IC50 (CDK1/CCNB1; [6]): > 250 nM
IC50 (CDK6/CCND1; [7]): > 250 nM

CS(=O)(=O)N1CCC(Nc2cc3c(N4CC(O)C4)nccc3cn2)CC1 [Ex 51, 1-(7-((1-(methylsulfonyl)piperidin-4-yl)amino)-2,6-naphthyridin-1-yl)azetidin-3-ol]
IC50 (CDK4/CCND3; [8]): 25 to 250 nM
IC50 (CDK2/CCNE1; 25-250 nM marked x, read-out: CDK2/CCNE IC50 25-250 nM): 25 to 250 nM
IC50 (CDK1/CCNB1; [9]): > 250 nM
IC50 (CDK6/CCND1; <25 nM, read-out: CDK6/CCND IC50 <25 nM): < 25 nM

Cc1c(-c2nccc3cnc(Nc4ccc(NS(=O)(=O)c5cncc(Cl)c5)cc4)cc23)ccc2c1cnn2CC(C)(C)O [Ex 822, 5-chloro-N-(4-((5-(1-(2-hydroxy-2-methylpropyl)-4-methyl-1H-indazol-5-yl)-2,6-naphthyridin-3-yl)amino)phenyl)pyridine-3-sulfonamide]
IC50 (CDK4/CCND3; [10]): > 250 nM
IC50 (CDK2/CCNE1; [11]): < 25 nM
IC50 (CDK1/CCNB1; [12]): > 250 nM
IC50 (CDK6/CCND1; [13]): > 250 nM

CS(=O)(=O)N1CCC(Nc2cc3c(-c4cccc(O)c4)nccc3cn2)CC1 [Ex 69, 3-(7-((1-(methylsulfonyl)piperidin-4-yl)amino)-2,6-naphthyridin-1-yl)phenol]
IC50 (CDK4/CCND3; [8]): 25 to 250 nM
IC50 (CDK2/CCNE1; [14]): < 25 nM
IC50 (CDK1/CCNB1; [15]): 25 to 250 nM
IC50 (CDK6/CCND1; [16]): 25 to 250 nM

CS(=O)(=O)c1ccc(Nc2cc3c(C#CC45CC(C(N)=O)(C4)C5)nccc3cn2)cc1 (racemic) [Ex 945, 3-((7-((4-(methylsulfonyl)phenyl)amino)-2,6-naphthyridin-1-yl)ethynyl)bicyclo[1.1.1]pentane-1-carboxamide]
IC50 (CDK4/CCND3; [17]): 25 to 250 nM
IC50 (CDK2/CCNE1; [11]): < 25 nM
IC50 (CDK1/CCNB1; 25-250 nM, read-out: CDK1/CCNB IC50, 25-250 nM): 25 to 250 nM
IC50 (CDK6/CCND1; [18]): 25 to 250 nM

Cc1c(-c2nccc3cnc(Nc4ccc(S(=O)(=O)Nc5ncc(N6CCN(C)CC6)cn5)cc4)cc23)ccc2c1cnn2CC(C)(C)O [Ex 849, 4-((5-(1-(2-hydroxy-2-methylpropyl)-4-methyl-1H-indazol-5-yl)-2,6-naphthyridin-3-yl)amino)-N-(5-(4-methylpiperazin-1-yl)pyrimidin-2-yl)benzenesulfonamide]
IC50 (CDK4/CCND3; [17]): 25 to 250 nM
IC50 (CDK2/CCNE1; [11]): < 25 nM
IC50 (CDK1/CCNB1; [12]): > 250 nM
IC50 (CDK6/CCND1; [18]): 25 to 250 nM

COc1ccc(NS(=O)(=O)c2ccc(Nc3cc4c(-c5ccc6c(cnn6CC(O)(C(F)(F)F)C(F)(F)F)c5C)nccc4cn3)cc2)cc1 [Ex 718, N-(4-methoxyphenyl)-4-((5-(4-methyl-1-(3,3,3-trifluoro-2-hydroxy-2-(trifluoromethyl)propyl)-1H-indazol-5-yl)-2,6-naphthyridin-3-yl)amino)benzenesulfonamide]
IC50 (CDK4/CCND3; [10]): > 250 nM
IC50 (CDK2/CCNE1; [19]): 25 to 250 nM
IC50 (CDK1/CCNB1; [12]): > 250 nM
IC50 (CDK6/CCND1; [13]): > 250 nM

CS(=O)(=O)c1ccc(Nc2cc3c(C#Cc4cnc(N)c(OC(F)F)c4)nccc3cn2)cc1 [Ex 534, 5-((6-amino-5-(difluoromethoxy)pyridin-3-yl)ethynyl)-N-(4-(methylsulfonyl)phenyl)-2,6-naphthyridin-3-amine]
IC50 (CDK4/CCND3; [4]): > 250 nM
IC50 (CDK2/CCNE1; [5]): 25 to 250 nM
IC50 (CDK1/CCNB1; [6]): > 250 nM
IC50 (CDK6/CCND1; [7]): > 250 nM

COc1cnc(NS(=O)(=O)c2ccc(Nc3cc4c(-c5ccc6c(cnn6CC(O)(C(F)(F)F)C(F)(F)F)c5C)nccc4cn3)cc2)nc1 [Ex 743, N-(5-methoxypyrimidin-2-yl)-4-((5-(4-methyl-1-(3,3,3-trifluoro-2-hydroxy-2-(trifluoromethyl)propyl)-1H-indazol-5-yl)-2,6-naphthyridin-3-yl)amino)benzenesulfonamide]
IC50 (CDK4/CCND3; [10]): > 250 nM
IC50 (CDK2/CCNE1; [11]): < 25 nM
IC50 (CDK1/CCNB1; [12]): > 250 nM
IC50 (CDK6/CCND1; [13]): > 250 nM

Cc1c(-c2nccc3cnc(Nc4ccc(S(=O)(=O)Nc5cccc(C(C)(C)O)c5)cc4)cc23)ccc2c1cnn2CC(O)(C(F)(F)F)C(F)(F)F [Ex 712, N-(3-(2-hydroxypropan-2-yl)phenyl)-4-((5-(4-methyl-1-(3,3,3-trifluoro-2-hydroxy-2-(trifluoromethyl)propyl)-1H-indazol-5-yl)-2,6-naphthyridin-3-yl)amino)benzenesulfonamide]
IC50 (CDK4/CCND3; [10]): > 250 nM
IC50 (CDK2/CCNE1; [19]): 25 to 250 nM
IC50 (CDK1/CCNB1; [12]): > 250 nM
IC50 (CDK6/CCND1; [13]): > 250 nM

Nc1ncccc1C#Cc1nccc2cnc(Nc3ccc(S(=O)(=O)NC4CCNCC4)cc3)cc12 [Ex 433, 4-((5-((2-aminopyridin-3-yl)ethynyl)-2,6-naphthyridin-3-yl)amino)-N-(piperidin-4-yl)benzenesulfonamide]
IC50 (CDK4/CCND3; [20]): 25 to 250 nM
IC50 (CDK2/CCNE1; [1]): < 25 nM
IC50 (CDK1/CCNB1; [2]): 25 to 250 nM
IC50 (CDK6/CCND1; [3]): 25 to 250 nM

CS(=O)(=O)c1ccc(Nc2cc3c(C#CCCO)nccc3cn2)cc1 [Ex 130, 4-(7-((4-(methylsulfonyl)phenyl)amino)-2,6-naphthyridin-1-yl)but-3-yn-1-ol]
IC50 (CDK4/CCND3; [8]): 25 to 250 nM
IC50 (CDK2/CCNE1; [14]): < 25 nM
IC50 (CDK1/CCNB1; [15]): 25 to 250 nM
IC50 (CDK6/CCND1; [16]): 25 to 250 nM

CN(C)C/C=C/S(=O)(=O)c1ccc(Nc2cc3c(N4CCC(C#N)CC4)nccc3cn2)cc1 [Ex 249, (E)-1-(7-((4-((3-(dimethylamino)prop-1-en-1-yl)sulfonyl)phenyl)amino)-2,6-naphthyridin-1-yl)piperidine-4-carbonitrile]
IC50 (CDK4/CCND3; [8]): 25 to 250 nM
IC50 (CDK2/CCNE1; >250 nM marked x, read-out: CDK2/CCNE IC50 >250 nM): > 250 nM
IC50 (CDK1/CCNB1; [9]): > 250 nM
IC50 (CDK6/CCND1; >250 nM marked x, read-out: CDK6/CCND IC50 >250 nM): > 250 nM

CCS(=N)(=O)c1ccc(Nc2cc3c(C#Cc4ccc5c(c4)NC(=O)C54CCC4)nccc3cn2)cc1 (single isomer, unassigned) [Ex 366, 6'-((7-((4-(ethylsulfonimidoyl)phenyl)amino)-2,6-naphthyridin-1-yl)ethynyl)spiro[cyclobutane-1,3'-indolin]-2'-one]
IC50 (CDK4/CCND3; [20]): 25 to 250 nM
IC50 (CDK2/CCNE1; [1]): < 25 nM
IC50 (CDK1/CCNB1; [2]): 25 to 250 nM
IC50 (CDK6/CCND1; [3]): 25 to 250 nM

Cc1c(-c2nccc3cnc(Nc4ccc(S(=O)(=O)Nc5ncc(F)cn5)cc4)cc23)ccc2c1cnn2CC(C)(C)O [Ex 880, N-(5-fluoropyrimidin-2-yl)-4-((5-(1-(2-hydroxy-2-methylpropyl)-4-methyl-1H-indazol-5-yl)-2,6-naphthyridin-3-yl)amino)benzenesulfonamide]
IC50 (CDK4/CCND3; [10]): > 250 nM
IC50 (CDK2/CCNE1; [11]): < 25 nM
IC50 (CDK1/CCNB1; [12]): > 250 nM
IC50 (CDK6/CCND1; [13]): > 250 nM

Cc1c(-c2nccc3cnc(Nc4ccc(S(=O)(=O)Nc5cc(N6CCOCC6)ccn5)cc4)cc23)ccc2c1cnn2CC(C)(C)O [Ex 772, 4-((5-(1-(2-hydroxy-2-methylpropyl)-4-methyl-1H-indazol-5-yl)-2,6-naphthyridin-3-yl)amino)-N-(4-morpholinopyridin-2-yl)benzenesulfonamide]
IC50 (CDK4/CCND3; [17]): 25 to 250 nM
IC50 (CDK2/CCNE1; [11]): < 25 nM
IC50 (CDK1/CCNB1; [12]): > 250 nM
IC50 (CDK6/CCND1; [18]): 25 to 250 nM
